Data on 5 compounds can be found in US8426649B2, “Cyclopropenones and the photochemical generation of cyclic alkynes therefrom” (University of Georgia Research Foundation, Inc., priority 2009, dated 2013).

Where two headings read alike, the source gives them in different places.

The conditions of series [1]: literature values (Baskin 2007; Ning/Boons 2008), cited from earlier work.
Series [2] relates to Jurkat cells. Kind of series: Cell surface labeling detected by fluorescence intensity of cell lysates (avidin-FITC). Type of series: cell-based, Human. The settings on record: for Incubation time at which labeling was reaching completion: time course. As for the experimental part: Having established that light activation of cyclopropenones results in the clean formation of the corresponding dibenzocyclooctynes, which can undergo cycloadditions with azides (e.g., metal-free cycloadditions in preferred embodiments) to give corresponding triazoles, attention was focused on labeling living cell modified with azido groups. Thus, Jurkat cells were cultured in the presence of […] of peracetylated N-azidoacetylmannosamine (Ac4ManNAz) for 3 days to metabolically introduce N-azidoacetyl-sialic acid (SiaNAz) groups into glycoproteins and glycolipids. As a negative control, Jurkat cells were employed that were grown in the presence of peracetylated N-acetylmannosamine (Ac4ManNAc). The cells were exposed to 30 micromolar of compound 4b, 5b, and 6b for 1 hour at room temperature. In addition, cells and cyclopropenone 5b were exposed to light (350 nm) for 1 minute to form in-situ cyclooctyne 6b and then incubated for 1 hour at room temperature. Next, the cells were washed and stained with avidin-fluorescein isothiocyanate (FITC) for 15 minutes at 4° C. The efficiency of the two-step cell surface labeling was determined by measuring the fluorescence intensity of the cell lysates.
Jurkat cells were cultured in the presence of […] of peracetylated N-azidoacetylmannosamine (Ac4ManNAz) for 3 days to metabolically introduce N-azidoacetyl-sialic acid (SiaNAz) groups into glycoproteins. As a negative control, Jurkat cells were employed that were grown in the presence of peracetylated N-acetylmannosamine (Ac4ManNAc). The cells were exposed to 30 micromoles of compound 4b, 5b, and 6b for 1 hour at 37° C. In addition, cells and cyclopropenone 5b were exposed to light (350 nm) for 1 minute to form in-situ cyclooctyne 6b and then incubated for 1 hour at 37° C. Next, the cells were washed and stained with avidin-fluorescein isothiocyanate (FITC) for 15 minutes at 4° C. and the efficiency of the two-step cell surface labeling was determined by measuring the fluorescence intensity of the cell lysates.
Jurkat cells were seeded at a density of 75,000 cells mL^−1 in a total volume of 40 mL culture medium in the presence of peracetylated N-azidoacetylmannosamine (Ac4ManNaz; 25 micromolar final concentration) and grown for 3 days, leading to the metabolic incorporation of the corresponding N-azidoacetyl sialic acid (SiaNAz) into their cell surface glycoproteins. Control cells were grown in the presence of peracetylated N-acetylmannosamine (Ac4ManNac; 25 micromolar final concentration) for 3 days. Similarly, CHO cells were grown for 3 days in the presence of Ac4ManNaz (100 micromolar final concentration) or Ac4ManNac (100 micromolar final concentration).
Jurkat cells bearing azides and control cells were washed with labeling buffer (DPBS, pH 7.4 containing 1% FBS and 1% BSA), transferred to round bottom tubes (1×10^6 cells/sample) and incubated with the biotinylated compounds 4b, 5b, or 6b (0-100 micromolar) in labeling buffer for 0-90 minutes at room temperature. To activate 5b in situ, immediately after adding the compound to the cells, the cell suspension was subjected to UV light (350 nm) for 1 minute. The cells were washed three times with cold labeling buffer and then incubated with avidin conjugated with fluorescein (0.5 microgram/ml; Molecular Probes) for 15 minutes at 4° C. Following three washes and cell lysis in passive lysis buffer (Promega), cell lysates were analysed for fluorescence intensity (485 ex/520 em) using a microplate reader (BMG Labtech). Data points were collected in triplicate and are representative of three separate experiments. Fluorescence of Jurkat cell lysates was expressed as fluorescence (arbitrary units; AU) per 800,000 cells.

For series [3], the system named is Jurkat cells. Kind of series: Western blot analysis of cell surface labeling. Type of series: cell-based, Human. The settings on record: 30 micromolar, 1 hour; 5b in-situ activated. The protocol: To identify the nature of the azide-labeled Jurkat glycoconjugates, cell lysates were analyzed by Western blot analysis (FIG. 8). Jurkat cells grown for 3 days in the presence of Ac4ManNAc or Ac4ManNAz were incubated with compounds in-situ activated 5b or 6b (30 micromolar) and then lysed. The Western blot was probed with an anti-biotin antibody conjugated to horseradish peroxidase (HRP). […] Furthermore, similar patterns of labeling were apparent after incubation with in-situ activated 5b and 6b.
Jurkat cells were harvested by centrifugation (5 minutes at 1,400 rpm) and resuspended as 5×10^6 cells/mL. The cell suspensions (250 microliters per sample) were incubated with biotin-conjugated alkynes 4b, 5b, and 6b (30 micromolar) or without compound as control for 1 hour. To activate 5b in situ, immediately after adding the compound to the cells, the cell suspension was subjected to UV light (350 nm) for 1 minute. The cells were washed (4×10 minutes) with cold DPBS, pH 7.4 containing FBS (1%) and lysed in passive lysis buffer. The cell lysates were clarified by centrifugation at 15,000 rpm for 15 minutes and the total protein content of the clear supernatants was assessed using the bicinchonic acid assay (BCA; Pierce Biotechnology). […]
(In general: Immunoblotting shows a protein as a band on a membrane.)

Series [4] has as its system Jurkat cells. Kind of series: Measurement of cytotoxicity (trypan blue exclusion, MTT). Type of series: cell-based, Human. The protocol: Cell viability was also examined after incubation with 5b with and without light activation followed by reincubation for 5 hours (see Examples). In both cases, the ability of the cells to reduce MTT to its insoluble formazan salt was […].
Cell viability and cell morphology were assessed by exclusion of trypan blue followed microscopic evaluation immediately after photoactivation or after reincubation of the labeled cells in cell culture medium for 5 hours or overnight. Viability was measured by quantifying the cellular ability to reduce the water-soluble tetrazolium dye 3-4,5-dimethylthiazole-2,5-diphenyl tetrazolium bromide (MTT) to its insoluble formazan salt (e.g., Sgouras et al., J. Mater. Sci.: Materials in Medicine 1990, 1:61-68). Data points were collected in triplicate and expressed as normalized values for control cells (100%).

The subject of the next series is CHO cells. In words: Detection of cell labeling by fluorescence microscopy. Type of series: cell-based, Chinese hamster. The protocol: Next, attention was focused on visualizing azido-containing glycoconjugates of living cells by confocal microscopy. Thus, adherent Chinese hamster ovary (CHO) cells were cultured in the presence of Ac4ManNAz (100 μM) for three days. The resulting cell surface azido groups were reacted with in situ generated 6b (30 μM) and then visualized with avidin-Alexa fluor 488.
CHO cells bearing azides and untreated control cells were transferred to glass coverslips and cultured for 36 hours in their original medium. Live CHO cells were treated with the biotinylated compound 5b (30 micromolar) in labeling buffer (DPBS, supplemented with FBS (1%)) for 1 hour at room temperature. To activate 5b in situ, immediately after adding the compound to the cells, the cells were subjected to UV light (350 nm) for 1 minute. Next, the cells were incubated with avidin conjugated with Alexa Fluor 488 (Molecular Probes) for 15 minutes at 4° C. Cells were washed 3 times with labeling buffer and fixed with formaldehyde (3.7% in PBS). The nucleus was labeled with the far red-fluorescent TO-PRO-3 dye (Molecular Probes). The cells were mounted with PermaFluor (Thermo Electron Corporation) before imaging. Initial analysis was performed on a Zeiss Axioplan2 fluorescent microscope. […] The step size, based on the calculated optimum for each objective, was between 0.25 and 0.5 micrometers. […]

[5] abbreviates: 30 micromolar, 1 hour, room temperature, cells grown with Ac4ManNAz.
The mark [6] stands for this setting: 30 micromoles, 1 hour at 37° C., cells grown with Ac4ManNAz.

As to `O=C(O)COC1CCC#CC(F)(F)CC1` (centres unmarked) [2-[(6,6-difluoro-4-cyclooctyn-1-yl)oxy]-acetic acid], the “Reported rate of the reaction of cyclooctynes with benzyl azide” value in series [1] is 0.076 M⁻¹ s⁻¹.
On to `OC1Cc2ccccc2C#Cc2ccccc21` (centres unmarked) [4a, 11,12-didehydro-5,6-dihydro-dibenzo[a,e]cycloocten-5-ol], for which the “Reported rate of the reaction of cyclooctynes with benzyl azide” value is 0.0568 M⁻¹ s⁻¹ in series [1] (listed as 11,12-didehydro-5,6-dihydro-dibenzo[a,e]cycloocten-5-ol) and 0.17 M⁻¹ s⁻¹ in series [1].
In the case of `O=C(CCCC[C@@H]1SC[C@@H]2NC(=O)N[C@@H]21)NCCOCCOCCOCCNC(=O)OC1Cc2ccccc2C#Cc2ccccc21` (stereo partly drawn) [4b, 11,12-didehydro-5,6-dihydrodibenzo[a,e]cycloocten-5-yl ester of 19-[(3aS,4S,6aR)-hexahydro-2-oxo-1H-thieno[3,4-d]imidazol-4-yl]-15-oxo-5,8,11-trioxa-2,14-diazanonadecanoic acid, reference compound], the “Cell surface labeling (fluorescence intensity of cell lysates)” value (shortened to “Cell surface labeling”) in the series with Jurkat cells [2] (setting [5]) and in the series with Jurkat cells [2] (setting [6]) was “strong labeling” each time. Further, in the series on Jurkat cells [2] (30 micromolar), the “Incubation time at which labeling was reaching completion” value worked out at 60 min.
For `CCCCOc1ccc2c(c1)CCc1cc(OCCOCCOC(=O)NCCOCCOCCNC(=O)CCCCC3SCC4NC(=O)NC43)ccc1-c1c-2c1=O` (centres unmarked) [5b, 2-{2-[(9-Butoxy-1-oxo-6,7-dihydro-1H-dibenzo[a,e]cyclopropa-[c][8]annulen-4-yl)oxy]ethoxy}ethyl {2-[2-(2-{[5-(2-oxohexahydro-1H-thieno[3,4-d]imidazol-4-yl)pentanoyl]amino}ethoxy)ethoxy]ethyl}carbamate], the “Cell surface labeling” value is reported as “strong labeling” in the series on Jurkat cells [2] (setting [6]); “low fluorescence intensities” with Jurkat cells [2] (in the dark (no activation), 30 micromolar, 1 hour, room temperature); “low fluorescence intensities” in the series with Jurkat cells [2] (in the dark (no activation), 1 hour at 37° C.); “equally efficient cell labeling” with Jurkat cells [2] (in-situ activation, 350 nm 1 minute, then 1 hour at 37° C.); “equally efficient cell labeling” in the series on Jurkat cells [2] (in-situ activation, 350 nm 1 minute, then 1 hour at room temperature, 30 micromolar). Besides, the “Glycoprotein labeling on Western blot (anti-biotin-HRP)” value with Jurkat cells [3] is given as “Significant glycoprotein labeling was only observed in lysates from cells grown in the presence of Ac4ManNAz”. Besides, in the series on Jurkat cells [4] (30 micromolar 5b with and without UV light activation (1 minute at 350 nm)), the “Cell viability and morphology (trypan blue exclusion)” value is “no changes were observed”. Moreover, in the series with Jurkat cells [4] (with and without light activation, reincubation for 5 hours), the “Ability of the cells to reduce MTT to formazan” value was “negligible”. Also, the “Staining (confocal microscopy, avidin-Alexa fluor 488)” value in the series with CHO cells (in the dark, cells metabolically labeled with ManNAz) is reported as “negligible staining”.
Turning to `CCCCOc1ccc2c(c1)CCc1cc(OCCOCCOC(=O)NCCOCCOCCNC(=O)CCCCC3SCC4NC(=O)NC43)ccc1C#C2` (centres unmarked) [6b, 2-{2-[(9-Butoxy-5,6-didehydro-11,12-dihydrodibenzo[a,e][8]annulen-2-yl)oxy]ethoxy}ethyl {2-[2-(2-{[5-(2-oxohexahydro-1H-thieno[3,4-d]imidazol-4-yl)pentanoyl]amino}ethoxy)ethoxy]ethyl}carbamate], the “Cell surface labeling” value with Jurkat cells [2] (setting [5]) was “strong labeling”. The “Fluorescent reading compared with 4b” value in the series with Jurkat cells [2] (at low concentration) is reported as “somewhat higher fluorescent reading than 4b”. In addition, the “Incubation time at which labeling was reaching completion” value in the series on Jurkat cells [2] (30 micromolar) stood at 60 min. The “Glycoprotein labeling on Western blot (anti-biotin-HRP)” value in the series with Jurkat cells [3] is reported as “Significant glycoprotein labeling was only observed in lysates from cells grown in the presence of Ac4ManNAz”. Also, the “Staining of azido-containing glycoconjugates (confocal microscopy, avidin-Alexa fluor 488)” value in the series with CHO cells (in situ generated, 30 μM, cells grown with Ac4ManNAz 100 μM) is listed as “staining was only observed at the cell surface”.
